From publication PMC11768359, “2-Aminothiophene Derivatives—New Drug Candidates Against Leishmaniasis: Drug Design, Synthesis, Pharmacomodulation, and Antileishmanial Activity” (Pharmaceuticals, 2025)
Where “and” joins values, the source holds several entries; their conditions need not be identical. Equal entries are not always repeated. Where two headings read alike, the source gives them in different places.

How the values were obtained:
RAW 264.7 macrophages = conditions: previously published; cited from earlier work
[1] = test system: axenic amastigotes of L. amazonensis; conditions: cited from earlier work
[2] = test system: promastigotes of L. amazonensis; conditions: cited from earlier work
[3] = test system: promastigotes of L. amazonensis; experiment: Growth inhibition of promastigote forms of L. amazonensis (MTT); type: cell-based, Leishmania amazonensis; conditions: 72 h, 26 °C
Procedure: (§1) The in vitro tests utilized Leishmania amazonensis parasites (IFLA/BR/67/PH8). These leishmania cell lines were obtained from Oswaldo Cruz Foundation (FIOCRUZ)/Brazil. The promastigote forms were cultivated in Schneider’s insect medium at 26 °C in a biological oxygen demand (BOD) incubator. Schneider’s insect medium was supplemented with 20% fetal bovine serum (FBS) and 1% penicillin (100 U/mL) and streptomycin (µg/mL) (complete Schneider). Next, we differentiated them from promastigote forms by changing the conditions to Schneider’s insect medium supplemented with 5% FBS, pH 4.6, and a temperature of 32 °C to obtain axenic amastigote forms of L. amazonensis. Meanwhile, RAW 264.7 macrophages were cultured in […] cell culture flasks using DMEM medium supplemented with 10% FBS, 1% penicillin 100 U/mL, and 100 μg/mL streptomycin (complete DMEM) and incubated at 37 °C and 5% CO2.
(§2) Parasite growth inhibition was evaluated using the methodology described by Rodrigues et al. (2015). Cultures of logarithmically growing promastigote and axenic amastigote forms (1 × 10^6 parasites/mL) were incubated in 96-well plates containing 100 µL of supplemented Schneider’s medium in triplicate. Serial concentrations of 2-amino-thiophene and 2-amino-selenophene derivatives (10.00–0.156 μM) and the reference drugs meglumine antimoniate (500–40,000 μg/mL), amphoterecinB (0.1–2 μM), and pentamidine (3.12–100 µM) were added. BNP was used as a negative control. The cultures were incubated in a biological oxygen demand oven (model Eletrolab EL202, São Paulo, Brazil) at 26 °C for promastigotes and 32 °C for axenic amastigotes for 72 h. Then, 10 μL of MTT (5 mg/mL) was added to each well to colorimetrically evaluate growth inhibition. The plate was subsequently incubated for a further 4 h, followed by adding 50 μL of 10% sodium dodecyl sulfate solution for […] before the optical density of the culture was read on a microplate spectrophotometer reader. The reading was taken at the test and reference wavelengths of 540 and 620 nm using a microplate spectrophotometer. The negative control consisted of 0.2% […] with BNP, considered to be 100% viable.

[4] = test system: axenic amastigotes of L. amazonensis; experiment: Growth inhibition of axenic amastigote forms of L. amazonensis (MTT); type: cell-based, Leishmania amazonensis; conditions: 72 h, 32 °C
Procedure: as §1, §2

[5] = Cytotoxicity in macrophages (MTT); type: cell-based; conditions: mouse, RAW 264.7 macrophages
Procedure: as §1
First, 100 μL DMEM medium complete with 1 × 10^6 macrophages (RAW 264.7) was added to each well of a 96-well plate. RAW 264.7 macrophages were obtain from ATCC: code TIB-71^TM. The plate was placed in an incubator (37 °C, 5% CO2) (Sanyo, model COM-15A, Sanyo Electric Co., Osaka, Japan) for 4 h to promote cell adhesion. After this period, two washes were conducted with previously heated DMEM medium (37 °C) to remove non-adhered cells. 2-amino-thiophene and 2-amino-selenophene derivatives were added to wells at serial concentrations of 400 to 25 µM and then incubated for 48 h. Next, 10 μL of MTT at a […] of 5 mg/mL were added to each well and incubated for 4 h. The plate was then shaken for 30 min and read at the test and reference wavelengths of 550 and 620 nm, respectively, in a plate reader. DMEM medium supplemented with 0.5% DMSO was used as a negative control and considered as 100% macrophage viability. The selectivity index for each treatment was calculated as the ratio between the concentration of cytotoxicity of RAW 264.7 macrophages (CC50) and the 50% inhibitory concentration (IC50) or effective concentration (EC50), as measured for the different evolutionary forms of L. amazonensis.

[6] = L. amazonensis axenic amastigotes, previously published, read-out: IC50 Amastigotes
[7] = L. amazonensis promastigotes, previously published, read-out: IC50 Promastigotes
[8] = L. amazonensis, read-out: IC50 against axenic amastigotes
[9] = L. amazonensis, read-out: IC50 against promastigotes

## CC1CCc2c(sc(/N=C/c3c[nH]c4ccc(Br)cc34)c2C#N)C1 (centres unmarked) [Me-6CN83]
RAW 264.7 macrophages
  CC50: > 100 µM
[1]; [6]
  IC50: 8.7 µM and 8.72 µM
[2]; [7]
  IC50: 9.9 µM

## CCC1CCc2c(sc(/N=C/c3c[nH]c4ccc(Br)cc34)c2C#N)C1 (centres unmarked) [Compound 27]
[3]; Leishmania amazonensis
  IC50: > 10 µM
[4]; Leishmania amazonensis
  IC50: > 10 µM

## CCCC1CCc2c(sc(N)c2C#N)C1 (centres unmarked) [Compound 15]
[3]
  IC50: 9.2 µM
[3]; Leishmania amazonensis
  IC50: < 10 µM
[4]
  IC50: 9.3 µM
[4]; Leishmania amazonensis
  IC50: < 10 µM

## N#Cc1c(/N=C/c2c[nH]c3ccccc23)sc2c1CCCCC2 [TN7, reference compound]
[2]; L. amazonensis promastigotes, sensitive strain, read-out: IC50 anti-promastigote
  IC50: 10 µM

## CC1CCc2c(sc(N)c2C#N)C1 (centres unmarked) [Compound 13]
[3]; Leishmania amazonensis
  IC50: > 10 µM
[4]; Leishmania amazonensis
  IC50: > 10 µM

## N#Cc1c(/N=C/c2c[nH]c3ccc(Br)cc23)[se]c2c1CCCC2 [Compound 38]
[3]
  IC50: 3.49 µM
[3]; Leishmania amazonensis
  IC50: < 3.5 µM
[5]
  CC50 at 48 h: 239 µM

## N#Cc1c(/N=C/c2c[nH]c3cccc(Br)c23)[se]c2c1CCCC2 [Compound 37]
[3]; Leishmania amazonensis
  IC50: 4.5 µM
[5]
  CC50 at 48 h: 242 µM

## Meglumine antimoniate [reference compound]
[3]
  IC50: 70.3 µM and 58.9 µM and 67.9 µM
[1]; [8]
  IC50: 2.77 µM
[2]; [9]
  IC50: 70.3 µM

## CCOC(=O)c1c(N)sc2c1CCC2 [Compound 9]
[3]; Leishmania amazonensis
  IC50: > 10 µM

## CC(C)(C)C1CCc2c(sc(/N=C/c3c[nH]c4ccc(Br)cc34)c2C#N)C1 (centres unmarked) [Compound 29]
[3]; Leishmania amazonensis
  IC50: > 10 µM
[4]; Leishmania amazonensis
  IC50: > 10 µM

## CCOC(=O)c1c(N)sc2c1CCC(C)C2 (centres unmarked) [Compound 20]
[3]
  IC50: > 10 µM
[3]; Leishmania amazonensis
  IC50: ≥ 10 µM

## N#Cc1c(/N=C/c2c[nH]c3ccc(Br)cc23)sc2c1CCNC2 [Compound 30]
[1]; [6]
  IC50: > 10 µM
[2]; [7]
  IC50: > 10 µM

## N#Cc1c(/N=C/c2c[nH]c3cccc(Br)c23)sc2c1CCCCCC2 [Compound 42, reference compound]
[1]; [8]
  IC50: 1.7 µM and 1.71 µM
[2]; [9]
  IC50: 2.9 µM and 2.97 µM

## CC(C)(C)OC(=O)N1CCc2c(sc(N)c2C(N)=O)C1 [Compound 19]
[3]; Leishmania amazonensis
  IC50: 9.35 µM
[4]; Leishmania amazonensis
  IC50: > 10 µM
[5]
  CC50 at 48 h: 310 µM
[1]; [8]
  IC50: 0.9 µM
[2]; [9]
  IC50: 2.1 µM and 2.16 µM

## COc1cccc2[nH]cc(/C=N/c3[se]c4c(c3C#N)CCCC4)c12 [Compound 39]
[3]
  IC50: 2.15 µM
[3]; Leishmania amazonensis
  IC50: < 3.5 µM
[5]
  CC50 at 48 h: 178 µM

## Cc1cc(C#N)c(/N=C/c2c[nH]c3ccc(Br)cc23)s1 [Compound 24]
[3]; Leishmania amazonensis
  IC50: > 10 µM
[4]; Leishmania amazonensis
  IC50: > 10 µM

## NC(=O)c1c(N)sc2c1CCCC2 [Compound 7]
[3]
  IC50: > 10 µM
[3]; Leishmania amazonensis
  IC50: ≥ 10 µM
[4]; Leishmania amazonensis
  IC50: > 10 µM

## CCOC(=O)c1ccsc1N [Compound 3]
[3]
  IC50: > 10 µM
[3]; Leishmania amazonensis
  IC50: ≥ 10 µM
[4]; Leishmania amazonensis
  IC50: > 10 µM

## Cc1ccc2[nH]cc(/C=N/c3[se]c4c(c3C#N)CCCC4)c2c1 [Compound 35]
[3]
  IC50 Promastigotes: not active up to the highest concentration evaluated
[3]; Leishmania amazonensis
  IC50: > 10 µM

## N#Cc1c(/N=C/c2c[nH]c3cccc([N+](=O)[O-])c23)[se]c2c1CCCC2 [Compound 34]
[3]
  IC50: 2.14 µM
[3]; Leishmania amazonensis
  IC50: < 3.5 µM
[5]
  CC50 at 48 h: 189 µM

## N#Cc1c(/N=C/c2c[nH]c3ccccc23)sc2c1CCCCC2 [SB-44, reference compound]
[1]; L. amazonensis amastigotes, previously published, read-out: IC50 Amastigotes
  IC50: 15.8 µM
[1]; L. amazonensis amastigotes, read-out: EC50 against amastigotes
  EC50: 15.8 µM
[2]; [7]
  IC50: 7.3 µM and 7.37 µM

## N#Cc1c(N)sc2c1CCNC2 [Compound 23]
[3]; Leishmania amazonensis
  IC50: > 10 µM
[4]; Leishmania amazonensis
  IC50: > 10 µM

## N#Cc1c(/N=C/c2c[nH]c3ccc(Br)cc23)sc2c1CCCCCCCCCC2 [Compound 26]
[1]; L. amazonensis axenic amastigotes, previously published
  IC50 Amastigotes: inactive against the two evolutionary forms
[1]; [6]
  IC50: > 10 µM
[2]; L. amazonensis promastigotes, previously published
  IC50 Promastigotes: inactive against the two evolutionary forms
[2]; [7]
  IC50: > 10 µM

## CCCC1CCc2c(sc(/N=C/c3c[nH]c4ccc(Br)cc34)c2C#N)C1 (centres unmarked) [Compound 28]
[3]
  IC50: 8.12 µM
[3]; Leishmania amazonensis
  IC50: < 10 µM
[4]; Leishmania amazonensis
  IC50: > 10 µM
